Here are results for 28 compounds from US8309545B2, “Benzofuran potassium channel blockers and uses thereof” (Bionomics Limited, priority 2006, dated 2012).

The assay deals with T1, human Kv1.3 ion channel (Homo sapiens, UniProt P22001).
T1 construct: Human Jurkat cells (which endogenously express hKv1.3) were used in place of rat L929 cells; endogenous in cells; host or cells: Human Jurkat cells
T1 sequence (P22001 whole entry): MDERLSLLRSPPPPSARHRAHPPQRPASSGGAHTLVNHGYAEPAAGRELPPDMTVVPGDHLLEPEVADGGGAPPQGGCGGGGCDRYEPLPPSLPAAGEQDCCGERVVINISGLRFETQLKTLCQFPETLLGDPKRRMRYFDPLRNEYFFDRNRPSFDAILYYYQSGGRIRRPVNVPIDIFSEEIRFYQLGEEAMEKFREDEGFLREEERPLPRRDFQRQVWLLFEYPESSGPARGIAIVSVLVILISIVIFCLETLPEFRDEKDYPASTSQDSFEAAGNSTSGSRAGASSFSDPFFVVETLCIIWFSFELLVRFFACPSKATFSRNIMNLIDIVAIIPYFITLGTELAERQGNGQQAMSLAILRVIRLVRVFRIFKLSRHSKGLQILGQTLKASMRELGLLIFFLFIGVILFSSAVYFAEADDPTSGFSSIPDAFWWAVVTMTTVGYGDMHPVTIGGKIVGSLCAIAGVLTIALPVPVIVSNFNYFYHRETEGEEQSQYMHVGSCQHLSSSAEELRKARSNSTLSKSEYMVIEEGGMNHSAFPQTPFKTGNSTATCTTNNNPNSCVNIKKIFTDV
In words: Inhibition of Kv1.3 currents, planar patch clamp in Jurkat cells. Particulars: Human Jurkat cells (endogenous hKv1.3), averaged dose response data from 3 or more cells. The assay is classed as cell-based. Here is the method: Potency of compounds to inhibit the human Kv1.3 ion channel were determined as follows:
EC50 values for inhibition of Kv1.3 currents were determined by the method according to Schmitz et al (2005) Molecular Pharmacology 68, 1254-1270 with the following differences: • 1. Human Jurkat cells (which endogenously express hKv1.3) were used in place of rat L929 cells. • 2. All electrophysiology was performed using planar patch clamp (Port-A-Patch, Nanion Technologies Gmbh, Munich) in contrast to conventional patch clamp. • 3. EC50 values shown were determined from averaged dose response data obtained from 3 or more cells.
A general note: The patch-clamp technique gives a direct electrical read-out from membranes.
As a reminder, the EC50 is the concentration giving half of the maximal effect. Low readings indicate an effect from little substance, high ones a need for much substance. In turn, `CC(=O)c1c(C)c2c(c(OCCC(C)c3ccc(F)cc3)c1OCCNC1CCCC1)OCC2` (stereo not shown) [Example 67, 1-{6-(2-Cyclopentylamino-ethoxy)-7-[3-RS-(4-fluorophenyl)-butoxy]-4-methyl-2,3-dihydro-benzofuran-5-yl}-ethanone] came in with an EC50 of 8 nM.

`COc1c(C(C)=O)c(OCCCCOc2ccccc2)c(OC)c2occc12` [Example 2] had an EC50 of 420 nM.

`CC(=O)c1c(OCCN2CCOCC2)c(OCCCc2ccc(F)cc2)c2occc2c1C` [Example 47b, 5-Acetyl-7-(3-(4-fluorophenyl)propoxy)-4-methyl-6-(2-morpholinoethoxy)benzofuran] returned an EC50 of 74 nM.

Compound `CC(=O)c1c(OCCN2CCOCC2)c(OC[C@H]2O[C@@H]2c2ccccc2)c2occc2c1C` [Example 63, 1-[4-Methyl-6-(2-morpholin-4-yl-ethoxy)-7-(2R,3R-3-phenyl-oxiranylmethoxy)-benzofuran-5-yl]-ethanone] came in with an EC50 of 600 nM.

`COc1c(C(C)=O)c(OCCCCOc2ccccc2)c(OCCN2CCOCC2)c2occc12` [14 c)] had an EC50 of 910 nM.

With `CC(=O)c1c(OCCN2CCOCC2)c(OCC(C)(C)Cc2ccccc2)c2occc2c1C` [Example 56b, 5-Acetyl-7-(2,2-dimethyl-3-phenylpropoxy)-4-methyl-6-(2-morpholinoethoxy)benzofuran], it took 362 nM to reach a half-maximal effect (EC50).

As to `COc1c(C(C)=O)c(O)c(OCCNc2ccccc2)c2occc12` [Example 64c, 1-[6-Hydroxy-4-methoxy-7-(2-phenylamino-ethoxy)-benzofuran-5-yl]-ethanone], the EC50 was found to be 340 nM.

Turning to `CC(=O)c1c(OCCN2CCOCC2)c(OC(C)CCc2ccccc2)c2occc2c1C` (stereo not shown) [Example 57b, 1-[4-Methyl-7-(1-RS-methyl-3-phenyl-propoxy)-6-(2-morpholin-4-yl-ethoxy)-benzofuran-5-yl]-ethanone], the EC50 came to 159 nM.

The compound `CC(=O)c1c(OCCN2CCCC2)c(OCCCc2ccccc2)c2occc2c1C` [Example 34, 1-[4-Methyl-7-(3-phenyl-propoxy)-6-(2-pyrrolidin-1-yl-ethoxy)-benzofuran-5-yl]-ethanone] displayed an EC50 of 223 nM.

The compound `COc1c(C(C)=O)c(OCCCc2ccccc2)c(CN(C)C)c2occc12` [13 b)] registered an EC50 of 480 nM.

`CC(=O)c1c(OCCn2ccnn2)c(OCCCc2ccccc2)c2occc2c1C` [Example 36, 1-[4-Methyl-7-(3-phenyl-propoxy)-6-(2-[1,2,3]triazol-1-yl-ethoxy)-benzofuran-5-yl]-ethanone] showed an EC50 of 122 nM.

With `CC(=O)c1c(OCCc2ccccn2)c(OCCCc2ccccc2)c2occc2c1C` [Example 40, 5-Acetyl-4-methyl-7-(3-phenylpropoxy)-6-(2-pyridin-2-yl-ethoxy)benzofuran], the response was half-maximal at 66 nM (EC50).

The compound `CC(=O)c1c(OCCN2CCCCC2)c(OCCCc2ccccc2)c2occc2c1C` [Example 33, 1-[4-Methyl-7-(3-phenyl-propoxy)-6-(2-piperidin-1-yl-ethoxy)-benzofuran-5-yl]-ethanone] registered an EC50 of 343 nM.

For the compound `CC(=O)c1c(OCCNC2CCCC2)c(OCCCc2ccccc2)c2occc2c1C` [Example 32, 1-[6-(2-Cyclopentylamino-ethoxy)-4-methyl-7-(3-phenyl-propoxy)-benzofuran-5-yl]-ethanone], the EC50 is 49 nM.

For `COc1c(C(C)=O)c(OCCN(C)C)c(OCCCc2ccccc2)c2occc12` [15 b)], the EC50 was 160 nM.

The compound `CC(=O)c1c(OCCN2CCOCC2)c(OCCC(C)(C)c2ccccc2)c2occc2c1C` (racemic) [Example 46b, rac-1-[4-Methyl-7-(3-methyl-3-phenyl-butoxy)-6-(2-morpholin-4-yl-ethoxy)-benzofuran-5-yl]ethanone] yielded a concentration giving a half-maximal response (EC50) of 198 nM.

Compound `CC(=O)c1c(OCCN2CCOCC2)c(OCCCc2ccccc2)c2oc(Cl)cc2c1C` [Example 41, 1-[2-Chloro-4-methyl-6-(2-morpholin-4-yl-ethoxy)-7-(3-phenyl-propoxy)-benzofuran-5-yl]-ethanone] yielded an EC50 of 215 nM.

For the compound `CC(=O)c1c(C)c2c(c(OCCCc3ccccc3)c1OCCN1CCOCC1)OCC2` [Example 65, 5-Acetyl-6-(2-morpholinoethoxy)-4-methyl-7-(3-phenylpropoxy)-2,3-dihydrobenzofuran], the response was half-maximal at 200 nM (EC50).

In turn, `CC(=O)c1c(O)c(OCCC(C)c2ccccc2)c2occc2c1C` (stereo not shown) [Example 50a, 1-[6-Hydroxy-4-methyl-7-(3-RS-phenylbutoxy)-benzofuran-5-yl]-ethanone] had an EC50 of 423 nM.

`CC(=O)c1c(OCCn2nccn2)c(OCCCc2ccccc2)c2occc2c1C` [Example 35, 1-[4-Methyl-7-(3-phenyl-propoxy)-6-(2-[1,2,3]triazol-2-yl-ethoxy)-benzofuran-5-yl]ethanone] returned an EC50 of 100 nM.

On to `CC(=O)c1cc2ccoc2cc1OCCCc1ccccc1` [Example 3, 5-Acetyl-6-(3-phenylpropoxy)benzofuran], for which the midpoint of the response, the EC50, lay at 184 nM.

`Cc1cc(=O)c2c(C)c3ccoc3c(OC[C@H]3C[C@H]3c3ccccc3)c2o1` (racemic) [Example 59a, rac-4,7-Dimethyl-9-(1S,2R-2-phenyl-cyclopropylmethoxy)-furo[3,2-g]chromen-5-one]: the EC50 worked out at 215 nM.

Turning to `CC(=O)c1c(OCCn2nnc(N)n2)c(OCCCc2ccccc2)c2occc2c1C` [21 a)], the concentration giving a half-maximal response (EC50) was found to be 23 nM.

`CC(=O)c1c(OCCN2CCOCC2)c(OC/C=C/c2ccccc2)c2occc2c1C` [Example 61, 1-[4-Methyl-6-(2-morpholin-4-yl-ethoxy)-7-(E-3-phenyl-allyloxy)-benzofuran-5-yl]-ethanone] yielded an EC50 of 221 nM.

`COc1c(OCCCc2ccccc2)c(C(C)=O)c(C)c2ccoc12` [4 c)] showed an EC50 of 225 nM.

`COc1c2occc2c(C)c2c(=O)cc(C)oc12` [4 a)] showed an EC50 of 790 nM.

Regarding `COc1c(C(C)=O)c(OCCS(=O)(=O)c2ccccc2)c(OC)c2occc12` [Example 9, 5-Acetyl-4,7-dimethoxy-6-(2-(benzenesulfonyl)ethoxy)benzofuran], the midpoint of the response, the EC50, lay at 2420 nM.

`CCOC(=O)CC(=O)c1c(OCCN2CCOCC2)cc2occc2c1OCCCCOc1ccccc1` [Example 24, 3-[6-(2-Morpholin-4-ylethoxy)-4-(4-phenoxybutoxy)benzofuran-5-yl]-3-oxo-propionic acid ethyl ester] had an EC50 of 590 nM.
